Measured values published in US20210087191A1, “SUBSTITUTED 3-ISOBUTYL-9,10-DIMETHOXY-1,3,4,6,7,11B-HEXAHYDRO-2H-PYRIDO[2,1-a]ISOQUINOLIN-2-OL COMPOUNDS, THEIR [sequence], AND USE THEREOF” (DISPERSOL TECHNOLOGIES, LLC, priority 2020, published 2021).
≈ marks a conversion by molar mass, not a printed value. Like-named read-outs stand apart in the source and are kept apart here.

Experiments:
[1] = Heps. stability assay, human cryopreserved hepatocytes; type: in vitro ADME; conditions: for microsomal CLint: read-out: Heps. stability assay Human Clint (μL/min/mg protein); for half-life: read-out: Heps. stability assay Human t1/2
Experimental: Metabolism of compound(s) to release (+)-α-DTHBZ was determined by the half-life (t1/2) and intrinsic clearance (CIint) in human cryopreserved hepatocytes using tandem mass spectrometry (LC-MS/MS).

[2] = Stability in human plasma (PS), LC-MS/MS; type: in vitro ADME; conditions: for half-life: read-out: Human PS t1/2
Experimental: (§1) Metabolism of compound(s) to release (+)-α-DTHBZ was determined by the half-life (t1/2) and intrinsic clearance (CIint) in human plasma (PS) and liver microsomes (LM) using tandem mass spectrometry (LC-MS/MS).

[3] = Metabolic stability in human liver microsomes (LM), LC-MS/MS (first table); type: in vitro ADME; conditions: for microsomal CLint: Table 1, read-out: Human LM CLint (μL/min/mg protein); for half-life: Table 1, read-out: Human LM t1/2
Experimental: as §1

[4] = Kinetic solubility in PBS buffer; type: physicochemical; conditions: aqueous buffer, kinetic from dmso stock, compound suspended at 300 μM, 25° C.
Experimental: Kinetic solubility was determined by suspending compound at 300 μM at pH 1.2 and 7.4 in PBS buffer. The suspension was equilibrated by shaking at 25° C. at 1100 RPM for 2 hours and then pH was measured following filtration. The filtrate was then diluted by an appropriate factor (e.g. 100-fold). Quantitation was done by LC-MS/MS with reference to a standard solution.

[5] = LM stability assay, human (second table); type: in vitro ADME; conditions: human liver microsomes, Table 2; for microsomal CLint: read-out: LM stability assay Human Clint (μL/min/mg protein); for half-life: read-out: LM stability assay Human t1/2
Experimental: Metabolism of compound(s) to release (+)-α-DTHBZ was determined by the half-life (t1/2) and intrinsic clearance (CIint) in human liver microsomes (LM) using tandem mass spectrometry (LC-MS/MS).

[6] = Permeability in Caco-2 cell monolayer; type: in vitro ADME; conditions: human; for Papp A→B: Caco-2, apical to basolateral; for Papp B→A: Caco-2, basolateral to apical; for efflux ratio: Caco-2
Experimental: The intestinal permeability of compound(s) was evaluated in Caco-2 cells by assessing transport across the cell monolayer in the apical to basolateral (A-B) direction. Active efflux was also assessed by measuring transport in the basolateral to apical (BA) direction which enables evaluation of the efflux ratio. Analysis of transport is quantified by tandem mass spectrometry (LC-MS/MS).

[7] = biological target: vesicular monoamine transporter-2 (VMAT2) (Homo sapiens, UniProt Q05940); conditions: read-out: IC50, inhibition of catecholamine uptake by VMAT2; cited from earlier work
[8] = in vivo; cited from earlier work
[9] = cited from earlier work
[10] = human, oral 25 mg IR formulation; cited from earlier work
[11] = in vivo, cited from earlier work
[12] = test system: VMAT1, other receptors (e.g., dopamine D2 receptors), transporters, and ion channels; conditions: in vitro; cited from earlier work
[13] = pH 1.2, PBS buffer, read-out: Kinetic Solubility pH = 1.2 (300 μM)
[14] = pH 7.4, PBS buffer, read-out: Kinetic Solubility pH = 7.4 (300 μM)

Sequence of vesicular monoamine transporter-2 (VMAT2) (Q05940 whole entry, species assumed): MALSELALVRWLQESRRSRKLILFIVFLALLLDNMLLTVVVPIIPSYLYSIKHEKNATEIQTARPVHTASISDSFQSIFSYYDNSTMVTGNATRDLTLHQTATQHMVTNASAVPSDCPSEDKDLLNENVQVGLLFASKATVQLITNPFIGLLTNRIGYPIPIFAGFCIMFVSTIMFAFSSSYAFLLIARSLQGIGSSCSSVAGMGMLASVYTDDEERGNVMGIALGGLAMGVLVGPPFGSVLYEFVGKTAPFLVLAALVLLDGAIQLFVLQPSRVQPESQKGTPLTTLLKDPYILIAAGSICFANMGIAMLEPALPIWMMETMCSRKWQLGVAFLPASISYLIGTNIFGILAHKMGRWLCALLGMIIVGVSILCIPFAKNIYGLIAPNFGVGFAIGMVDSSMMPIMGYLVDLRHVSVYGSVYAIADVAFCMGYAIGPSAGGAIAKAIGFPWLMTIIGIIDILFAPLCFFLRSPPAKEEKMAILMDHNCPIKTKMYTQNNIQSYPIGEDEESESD

In the case of COc1cc2c(cc1OC)[C@H]1C[C@@H](OC(=O)c3cncc(C(=O)O[C@@H]4C[C@@H]5c6cc(OC)c(OC)cc6CCN5C[C@H]4CC(C)C)c3)[C@H](CC(C)C)CN1CC2 [Example 15, 3,5-bis[(2R,3R,11bR)-9,10-dimethoxy-3-(2-methylpropyl)-1H,2H,3H,4H,6H,7H,11bH-pyrido[2,1-a]isoquinolin-2-yl] pyridine-3,5-dicarboxylate], the microsomal CLint [1] is reported as 16.6 µL/min/mg, the half-life [1] is reported as 83.7 min and the half-life [2] is reported as > 2.24 days. For the same compound, the microsomal CLint [3] was < 0.08 µL/min/mg, the half-life [3] was > 8560 min and the solubility kinetic at 2 h [4, 13] was 317 µM (≈ 244 µg/mL). The solubility kinetic at 2 h [4, 14] was 0.06 µM (≈ 0.0462 µg/mL), the “LM stability assay Human t1/2 (min)” value [5] was “∞” and the Papp A→B [6] was < 0.01 ×10⁻⁶ cm/s. The Papp B→A [6] was < 0.01 ×10⁻⁶ cm/s.

For COc1cc2c(cc1OC)[C@H]1C[C@@H](OC(=O)CCCCCCC(=O)O[C@@H]3C[C@@H]4c5cc(OC)c(OC)cc5CCN4C[C@H]3CC(C)C)[C@H](CC(C)C)CN1CC2 [Example 16, bis[(2R,3R,11bR)-9,10-dimethoxy-3-(2-methylpropyl)-1H,2H,3H,4H,6H,7H,11bH-pyrido[2,1-a]isoquinolin-2-yl] octanedioate], the microsomal CLint [1] was 22.6 µL/min/mg, the half-life [1] was 61.7 min and the “Human PS t1/2 (min)” value [2] was “∞”. For the same compound, the microsomal CLint [3] was < 1.25 µL/min/mg, the half-life [3] was > 553 min and the solubility kinetic at 2 h [4, 13] was 141 µM (≈ 110 µg/mL). It also gave a solubility kinetic at 2 h [4, 14] of 0.042 µM (≈ 0.0326 µg/mL), a microsomal CLint [5] of 150 µL/min/mg and a half-life [5] of 4.65 min. The Papp A→B [6] was < 0.02 ×10⁻⁶ cm/s and the Papp B→A [6] was < 0.01 ×10⁻⁶ cm/s.

For COc1cc2c(cc1OC)[C@H]1C[C@@H](OC(=O)CCC(=O)O[C@@H]3C[C@@H]4c5cc(OC)c(OC)cc5CCN4C[C@H]3CC(C)C)[C@H](CC(C)C)CN1CC2 [Example 17], the microsomal CLint [1] was 16.9 µL/min/mg, the half-life [1] was 81.9 min and the half-life [2] was 1.54 days. It also gave a microsomal CLint [3] of 1.59 µL/min/mg, a half-life [3] of 456 min and a solubility kinetic at 2 h [4, 13] of 308 µM (≈ 222 µg/mL). The solubility kinetic at 2 h [4, 14] was 0.0019 µM (≈ 0.00137 µg/mL), the microsomal CLint [5] was 71.5 µL/min/mg and the half-life [5] was 9.71 min. The efflux ratio [6] was > 1.93, the Papp A→B [6] was < 0.02 ×10⁻⁶ cm/s and the Papp B→A [6] was 0.0333 ×10⁻⁶ cm/s.

Compound COc1cc2c(cc1OC)[C@H]1C[C@@H](OC(=O)NCC(C)C)[C@H](CC(C)C)CN1CC2 [Example 23, (2R,3R,11bR)-9,10-dimethoxy-3-(2-methylpropyl)-1H,2H,3H,4H,6H,7H,11bH-pyrido[2,1-a]isoquinolin-2-yl N-(2-methylpropyl)carbamate] has a microsomal CLint [1] of 35.6 µL/min/mg, a half-life [1] of 39 min and a half-life [2] of 18.2 days. For the same compound, the microsomal CLint [3] was < 3.95 µL/min/mg, the half-life [3] was > 175 min and the solubility kinetic at 2 h [4, 13] was 312 µM (≈ 131 µg/mL). The solubility kinetic at 2 h [4, 14] was 91.2 µM (≈ 38.2 µg/mL), the microsomal CLint [5] was 208 µL/min/mg and the half-life [5] was 3.34 min. The efflux ratio [6] was 0.67, the Papp A→B [6] was 14.2 ×10⁻⁶ cm/s and the Papp B→A [6] was 9.54 ×10⁻⁶ cm/s.

For COc1cc2c(cc1OC)C1CC(=O)C(CC(C)C)CN1CC2 (stereo not shown) [TBZ, 3-isobutyl-9,10-dimethoxy-1,3,4,6,7,11b-hexahydro-2H-pyrido[2,1-a]isoquinolin-2-one], the IC50 [7] is listed as 3.2 nM, the Tmax [8] is listed as 1 h and the “solubility in acidic environments” value ([9]; pH<2) is listed as 8.5 mg/mL (≈ 26.8 mM). The “solubility in neutral environments” value ([9]; pH>4) was 0.03 mg/mL (≈ 0.0945 mM), the “Mean Tmax” value [10] was “approximately 1 hour” and the “mean t1/2” value [10] was “approximately 2 hours”.

For COc1cc2c(cc1OC)[C@H]1C[C@@H](OC(=O)[C@@H](N)C(C)C)[C@H](CC(C)C)CN1CC2 [Valbenazine, (2R,3R,11bR)-9,10-dimethoxy-3-(2-methylpropyl)-1,3,4,6,7,11b-hexahydro-2H-benzo[a]quinolizin-2-yl L-valinate], the oral bioavailability ([11]; po) is listed as 49%, the Tmax [11] is listed as 30 to 60 min and the excreted in feces [11] is listed as 30%. For the same compound, the excreted in urine [11] was “Approximately 60%”, the “parent compound or active metabolite excreted unchanged” value [11] was “Less than 2%” and the t1/2 [11] was 15 to 22 h. For the same compound, the “affinity for VMAT1, other receptors, transporters, and ion channels” value [12] was “little or no affinity”.
